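These data come from cells grown in 96-well plates and exposed to compound for 48 hours at five concentrations. Abbreviation: GI50, concentration required for 50% inhibition of growth.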 Calls of active or inactive are those of the source. Cut-off read from the data, not from the text of the source: active = GI50 up to about 1.1 µM and inactive = higher.
Columns and labels:
Experiment in all cases: NCI anticancer screen, dose series, 48 h
HCC 2998 = test system: HCC 2998
OVCAR-4 = test system: OVCAR-4
HT-29 = test system: HT-29
SF-268 = test system: SF-268
A498 = test system: A498
SK-MEL-28 = test system: SK-MEL-28
NCI-H522 = test system: NCI-H522
KM12 = test system: KM12
EKVX = test system: EKVX
MDA-N = test system: MDA-N
M14 = test system: M14
MDA-MB-231 = test system: MDA-MB-231
SF-295 = test system: SF-295
NCI/ADR-RES = test system: NCI/ADR-RES
UACC-257 = test system: UACC-257
Hs-578T = test system: Hs-578T
ACHN = test system: ACHN
SK-OV-3 = test system: SK-OV-3
HCT-15 = test system: HCT-15
MOLT-4 = test system: MOLT-4
PC-3 = test system: PC-3
UACC-62 = test system: UACC-62
CAKI-1 = test system: CAKI-1
U-251 = test system: U-251
SK-MEL-5 = test system: SK-MEL-5
LOX IMVI = test system: LOX IMVI
NCI-H226 = test system: NCI-H226
SW-620 = test system: SW-620
OVCAR-3 = test system: OVCAR-3
SR = test system: SR
NCI-H460 = test system: NCI-H460
SNB-19 = test system: SNB-19
OVCAR-5 = test system: OVCAR-5
T47D = test system: T47D
HCT-116 = test system: HCT-116
A549 = test system: A549
MDA-MB-435 = test system: MDA-MB-435
HOP-92 = test system: HOP-92
RPMI-8226 = test system: RPMI-8226
K562 = test system: K562
IGROV-1 = test system: IGROV-1
786-0 = test system: 786-0
RXF 393 = test system: RXF 393
UO-31 = test system: UO-31
OVCAR-8 = test system: OVCAR-8
DU-145 = test system: DU-145
SF-539 = test system: SF-539
CCRF-CEM = test system: CCRF-CEM
SK-MEL-2 = test system: SK-MEL-2
HL-60 = test system: HL-60
HOP-62 = test system: HOP-62
NCI-H23 = test system: NCI-H23
TK-10 = test system: TK-10
MCF7 = test system: MCF7
COLO 205 = test system: COLO 205
SN12C = test system: SN12C
SNB-75 = test system: SNB-75
BT-549 = test system: BT-549

## Cc1c(C(=O)O)n2c(S)nnc2c2ccccc12
HCC 2998
  GI50: > 100 µM (inactive)
OVCAR-4
  GI50: > 100 µM (inactive)
HT-29
  GI50: > 100 µM (inactive)
SF-268
  GI50: > 100 µM (inactive)
A498
  GI50: > 100 µM (inactive)
SK-MEL-28
  GI50: > 100 µM (inactive)
NCI-H522
  GI50: > 100 µM (inactive)
KM12
  GI50: > 100 µM (inactive)
EKVX
  GI50: > 100 µM (inactive)
MDA-N
  GI50: > 100 µM (inactive)
M14
  GI50: > 100 µM (inactive)
MDA-MB-231
  GI50: > 100 µM (inactive)
SF-295
  GI50: > 100 µM (inactive)
NCI/ADR-RES
  GI50: > 100 µM (inactive)
UACC-257
  GI50: > 100 µM (inactive)
Hs-578T
  GI50: > 100 µM (inactive)
ACHN
  GI50: > 100 µM (inactive)
SK-OV-3
  GI50: > 100 µM (inactive)
HCT-15
  GI50: > 100 µM
MOLT-4
  GI50: > 100 µM (inactive)
PC-3
  GI50: > 100 µM (inactive)
UACC-62
  GI50: > 100 µM (inactive)
CAKI-1
  GI50: > 100 µM (inactive)
U-251
  GI50: > 100 µM (inactive)
SK-MEL-5
  GI50: > 100 µM (inactive)
LOX IMVI
  GI50: > 100 µM (inactive)
NCI-H226
  GI50: > 100 µM (inactive)
SW-620
  GI50: > 100 µM (inactive)
OVCAR-3
  GI50: > 100 µM (inactive)
SR
  GI50: > 100 µM (inactive)
NCI-H460
  GI50: > 100 µM (inactive)
SNB-19
  GI50: > 100 µM (inactive)
OVCAR-5
  GI50: > 100 µM (inactive)
T47D
  GI50: > 100 µM (inactive)
HCT-116
  GI50: > 100 µM (inactive)
A549
  GI50: > 100 µM (inactive)
MDA-MB-435
  GI50: > 100 µM (inactive)
HOP-92
  GI50: > 100 µM (inactive)
RPMI-8226
  GI50: > 100 µM (inactive)
K562
  GI50: > 100 µM (inactive)
IGROV-1
  GI50: > 100 µM (inactive)
786-0
  GI50: > 100 µM (inactive)
RXF 393
  GI50: > 100 µM (inactive)
UO-31
  GI50: > 100 µM (inactive)
OVCAR-8
  GI50: > 100 µM (inactive)
DU-145
  GI50: > 100 µM (inactive)
SF-539
  GI50: > 100 µM (inactive)
CCRF-CEM
  GI50: > 100 µM (inactive)
SK-MEL-2
  GI50: > 100 µM (inactive)
HL-60
  GI50: > 100 µM (inactive)
HOP-62
  GI50: > 100 µM (inactive)
NCI-H23
  GI50: > 100 µM (inactive)
TK-10
  GI50: > 100 µM (inactive)
MCF7
  GI50: > 100 µM (inactive)
COLO 205
  GI50: > 100 µM (inactive)
SN12C
  GI50: > 100 µM (inactive)

## CCNCCNC(=O)c1ccc(I)cc1
HCC 2998
  GI50: > 100 µM (inactive)
OVCAR-4
  GI50: > 100 µM (inactive)
HT-29
  GI50: > 100 µM (inactive)
SF-268
  GI50: > 100 µM (inactive)
A498
  GI50: > 100 µM (inactive)
SK-MEL-28
  GI50: > 100 µM (inactive)
KM12
  GI50: > 100 µM (inactive)
EKVX
  GI50: > 100 µM (inactive)
M14
  GI50: > 100 µM (inactive)
NCI/ADR-RES
  GI50: > 100 µM (inactive)
Hs-578T
  GI50: 81.8 µM (inactive)
ACHN
  GI50: > 100 µM (inactive)
SK-OV-3
  GI50: > 100 µM (inactive)
HCT-15
  GI50: > 100 µM
MOLT-4
  GI50: > 100 µM (inactive)
PC-3
  GI50: > 100 µM (inactive)
UACC-62
  GI50: > 100 µM (inactive)
CAKI-1
  GI50: > 100 µM (inactive)
U-251
  GI50: > 100 µM (inactive)
SK-MEL-5
  GI50: > 100 µM (inactive)
LOX IMVI
  GI50: > 100 µM (inactive)
NCI-H226
  GI50: 6.22 µM (inactive)
SW-620
  GI50: > 100 µM (inactive)
OVCAR-3
  GI50: > 100 µM (inactive)
SR
  GI50: > 100 µM (inactive)
NCI-H460
  GI50: > 100 µM (inactive)
SNB-19
  GI50: > 100 µM (inactive)
OVCAR-5
  GI50: > 100 µM (inactive)
A549
  GI50: > 100 µM (inactive)
HOP-92
  GI50: 99.8 µM (inactive)
RPMI-8226
  GI50: > 100 µM (inactive)
K562
  GI50: > 100 µM (inactive)
IGROV-1
  GI50: > 100 µM (inactive)
786-0
  GI50: > 100 µM (inactive)
SNB-75
  GI50: 34.4 µM (inactive)
RXF 393
  GI50: > 100 µM (inactive)
UO-31
  GI50: 58.6 µM (inactive)
OVCAR-8
  GI50: > 100 µM (inactive)
SF-539
  GI50: > 100 µM (inactive)
CCRF-CEM
  GI50: > 100 µM (inactive)
HL-60
  GI50: > 100 µM (inactive)
BT-549
  GI50: > 100 µM (inactive)
NCI-H23
  GI50: > 100 µM (inactive)
TK-10
  GI50: > 100 µM (inactive)
MCF7
  GI50: > 100 µM (inactive)
SN12C
  GI50: > 100 µM (inactive)

Reference: ChEMBL document CHEMBL1201862, “PubChem BioAssay data set” (2004)
